Data: patent US20110236504A1, “VERSATILE DISINFECTANT” (priority 2008, published 2011)
Values joined by “and” are separate entries in the source; they are usually repeats but may differ in a detail not shown here. Identical values can stand only once. Like-named read-outs stand apart in the source and are kept apart here.

Tests used:
[1] = tested on: viable bacteria in sputum; assay: Sterilization effect on specimen: sputum; settings: Sputum 2 × 10^9/g
[2] = tested on: intestinal bacteria in feces; assay: Sterilization effect on specimen: feces; settings: for The number of viable bacteria in specimen: Feces 1.5 × 10^11/g
[3] = tested on: pus mainly including antibiotic resistant MRSA; settings: Pus (MRSA) 4 × 10^9/g
[4] = tested on: pus mainly including antibiotic resistant Pseudomonas aeruginosa (MDRP); settings: Pus (MDRP) 5 × 10^9/g
[5] = tested on: viable bacteria on skin surface; assay: Application on hand skin, swab method; type: in vivo; settings: for The number of viable bacteria on skin surface, relative value: before application = 100
Procedure: The disinfectant prepared in Preparation Example 3 was applied. Immediately after that, an area of 10 cm^2 was wiped with sterile gauze that was immersed into sterile physiological saline. Then, the number of bacteria was counted (Swab method). Next, different areas each having an area of 10 cm^2 were wiped in the applied area after 15 minutes, after 30 minutes, and after 60 minutes, and the viability of bacteria on the skin was determined. As controls, tap water and 70% ethanol were used. The number of bacteria before the application of disinfectants is regarded as 100 and relative values are shown.

[6] = tested on: spores of Bacillus species; assay: Spore decay time and decay rate in dried soil, aerobic culture; type: cell-based; settings: for Spore decay rate, Spores of Bacillus species: 1 g dried soil in 10 ml, aerobic culture
Procedure: (§1) Sands in a sandbox in a park and riverside soil were collected and mixed. The mixture was dried with heated air at 80 to 90° C. for 6 hours. Then, 1 g of the dried mixture was added into water and immediately filtered with a filter. A part of the filtrate was applied onto a glass slide, and spores were stained in a common procedure. The number of stained spores was counted and the number of spores contained in 1 g of soil was determined. Simultaneously, the spores were aerobically (Bacillus species proliferated) and anaerobically (Clostridium species proliferated) cultured, and each ratio was determined.
(§2) Then, into 10 ml of the sample disinfectant, 1 g of the dried soil was added. Some of the mixture was collected with time, and cultured aerobically and anaerobically. The number of growing colonies was counted to determine the decay rate of the spores.

[7] = tested on: spores of Clostridium species; assay: Spore decay time and decay rate in dried soil, anaerobic culture; type: cell-based; settings: for Spore decay rate, Spores of Clostridium species: 1 g dried soil in 10 ml, anaerobic culture
Procedure: as §1, §2

[8] = Investigation of aqueous L-ascorbic acid solution; type: cell-based
From the text: L-ascorbic acid (vitamin C) is essential for a living body and well fitted to body tissues. Addition of a small amount of L-ascorbic acid increases affinity to cellular tissues.

[9] = tested on: viable bacteria in saliva; assay: Effect of gargle, viable bacteria in saliva; type: in vivo, persons; settings: for number of viable bacteria in saliva, relative value: before gargle = 100, one value per person
Procedure: Next, the efficacy of the disinfectant was examined when it is used for a gargle. The number of viable bacteria was counted in 1 ml of saliva that was collected from each of three persons before a gargle. Then, each person gargled three times each for 20 seconds, that is, gargled for total of 1 minute, with the disinfectant of the present invention that was prepared in Preparation Example 6. Each saliva was collected immediately after the gargle and at 15 minutes, 30 minutes, and 60 minutes after the gargle. The number of viable bacteria was counted per 1 ml of the saliva, and the effect of gargle was determined. Here, the number of viable bacteria before gargle is regarded as 100, and relative values are shown.
As a control, each of two persons was gargled with tap water or 1000 ppm povidone-iodine in a similar way.

E. coli O-157 [10] = assay: Metal ion or food preservative added to growth medium, viable count; type: cell-based; settings: metal ion in growth medium
Procedure: (§3) To a standard medium for counting viable bacteria described below, each metal ion with varied concentration was added. […] Then, the number of viable bacteria was counted with time in a common procedure.
(§4) Sample bacteria: S. aureus 209P as a representative of Gram-positive bacteria • E. coli 0-157 as a representative of Gram-negative bacteria
(§5) Standard medium for counting viable bacteria: yeast extract 2.5 g, peptone 5 g, glucose 1 g, agar 15 g, pH 7.2

S. aureus 209P [11] = assay: as above; type: cell-based; settings: metal ion in growth medium
Procedure: as §3, §4, §5

S. aureus 209P [12] = assay: 100% death time on contact with solution; type: cell-based
From the text: Examples of the effect are shown below.

E. coli O-157 [13] = assay: 100% death time on contact with solution
[14] = Cu^2+ 50 ppm + L-ascorbic acid 100 ppm
[15] = Cu^2+ 50 ppm + L-ascorbic acid 100 ppm + potassium sorbate 50 ppm
[16] = Cu^2+ 50 ppm + potassium sorbate 50 ppm
[17] = Cu^2+ 50 ppm + sodium lauryl sulfate 50 ppm
[18] = Cu^2+ 50 ppm + sodium lauryl sulfate 50 ppm + L-ascorbic acid 100 ppm
[19] = Cu^2+ 50 ppm + sodium lauryl sulfate 50 ppm + L-ascorbic acid 100 ppm + potassium sorbate 50 ppm

Compound: CCO [70% Ethanol, ethanol]
- The number of viable bacteria in specimen ([1]; 5 min after addition): 1e+08 g⁻¹
- The number of viable bacteria in specimen ([1]; 15 min after addition): 2e+07 g⁻¹
- The number of viable bacteria in specimen ([1]; 30 min after addition): 6e+06 g⁻¹
- The number of viable bacteria in specimen ([1]; 60 min after addition): 5e+06 g⁻¹
- The number of viable bacteria in specimen ([1]; 60 min after addition, listed as 70% ethanol): 5e+06 g⁻¹
- The number of viable bacteria in specimen ([2]; 5 min after addition): 5e+06 g⁻¹
- The number of viable bacteria in specimen ([2]; 15 min after addition): 3000 g⁻¹
- The number of viable bacteria in specimen ([2]; 30 min after addition): 4e+10 g⁻¹
- The number of viable bacteria in specimen ([2]; 60 min after addition): 4e+16 g⁻¹
- effect on bacteria in feces ([2]; feces): only slightly decreased
- The number of viable bacteria in specimen ([3]; 5 min after addition): 5e+07 g⁻¹
- The number of viable bacteria in specimen ([3]; 15 min after addition): 200000 g⁻¹
- The number of viable bacteria in specimen ([3]; 30 min after addition): 80000 g⁻¹
- The number of viable bacteria in specimen ([3]; 60 min after addition): 50000 g⁻¹
- The number of viable bacteria in specimen ([4]; 5 min after addition): 7e+07 g⁻¹
- The number of viable bacteria in specimen ([4]; 15 min after addition): 500000 g⁻¹
- The number of viable bacteria in specimen ([4]; 30 min after addition): 10000 g⁻¹
- The number of viable bacteria in specimen ([4]; 60 min after addition): 10000 g⁻¹
- number of bacteria on skin relative to before application ([5]; after 60 minutes): 45%
- The number of viable bacteria on skin surface, relative value ([5]; after 15 min): 12
- The number of viable bacteria on skin surface, relative value ([5]; after 30 min): 20
- The number of viable bacteria on skin surface, relative value ([5]; after 60 min): 45
- The number of viable bacteria on skin surface, relative value ([5]; immediately after): 0
- The number of viable bacteria on skin surface, relative value ([5]; immediately after, listed as 70% ethanol): no bacteria was observed
- effect on the spores [6]: no effect
- Spore decay rate, Spores of Bacillus species ([6]; 1 min contact): 0%
- Spore decay rate, Spores of Bacillus species ([6]; 5 min contact): 0%
- Spore decay rate, Spores of Bacillus species ([6]; 10 min contact): 0%
- Spore decay rate, Spores of Bacillus species ([6]; 30 min contact): 0%
- Spore decay rate, Spores of Bacillus species ([6]; 60 min contact): 0%
- Spore decay rate, Spores of Bacillus species ([6]; 120 min contact): 0%
- effect on the spores [7]: no effect
- Spore decay rate, Spores of Clostridium species ([7]; 1 min contact): 0%
- Spore decay rate, Spores of Clostridium species ([7]; 5 min contact): 0%
- Spore decay rate, Spores of Clostridium species ([7]; 10 min contact): 0%
- Spore decay rate, Spores of Clostridium species ([7]; 30 min contact): 0%
- Spore decay rate, Spores of Clostridium species ([7]; 60 min contact): 0%
- Spore decay rate, Spores of Clostridium species ([7]; 120 min contact): 0%

Compound: O=C1O[C@H]([C@@H](O)CO)C(O)=C1O [L-ascorbic acid]
- antimicrobial activity of aqueous solution itself [8]: almost no antimicrobial activity

Compound: povidone-iodine
- number of bacteria in saliva relative to before gargle ([9]; after 60 minutes): 30 to 40%
- number of viable bacteria in saliva, relative value ([9]; after 15 min): 5 and 8
- number of viable bacteria in saliva, relative value ([9]; after 30 min): 18 and 20
- number of viable bacteria in saliva, relative value ([9]; after 60 min): 30 and 40
- number of viable bacteria in saliva, relative value ([9]; immediately after gargle): 2
- number of bacteria in saliva relative to before gargle ([9]; immediately after the gargle): 2%

Compound: O.O.O.O.O.O=S(=O)([O-])[O-].[Cu+2] [Cu^2+, CuSO4•5H2O]
- (a) Antiproliferative activity, concentration (E. coli O-157 [10]): 5~30 ppm
- (b) Bacteriostatic activity, concentration (E. coli O-157 [10]): 25~120 ppm
- (c) Bactericidal activity, concentration (E. coli O-157 [10]): 100 ppm>
- Acceleration of growth, concentration (E. coli O-157 [10]): 5 ppm<
- (a) Antiproliferative activity, concentration (S. aureus 209P [11]): 10~50 ppm
- (b) Bacteriostatic activity, concentration (S. aureus 209P [11]): 40~150 ppm
- Acceleration of growth, concentration (S. aureus 209P [11]): 5 ppm<
- 100% death time (S. aureus 209P [12]; [14]): 60 min
- 100% death time (S. aureus 209P [12]; [15]): 50 min
- 100% death time (S. aureus 209P [12]; [16]): 75 min
- 100% death time (S. aureus 209P [12]; [17]): 1.5 min
- 100% death time (S. aureus 209P [12]; [18]): 1 min
- 100% death time (S. aureus 209P [12]; [19]): 0.75 min
- 100% death time (S. aureus 209P [12]; Cu^2+ ion 50 ppm alone): 90 min
- 100% death time (E. coli O-157 [13]; [14]): 60 min
- 100% death time (E. coli O-157 [13]; [15]): 45 min
- 100% death time (E. coli O-157 [13]; [16]): 70 min
- 100% death time (E. coli O-157 [13]; [17]): 1 min
- 100% death time (E. coli O-157 [13]; [18]): 1 min
- 100% death time (E. coli O-157 [13]; [19]): 0.5 min
- 100% death time (E. coli O-157 [13]; Cu^2+ ion 50 ppm alone): 90 min
